IC50 data for 49 compounds are collected here from patent US9006450B2 (Boehringer Ingelheim International GmbH, priority 2010, dated 2015).

T1 sequence (O00763 129-2458 limits assumed): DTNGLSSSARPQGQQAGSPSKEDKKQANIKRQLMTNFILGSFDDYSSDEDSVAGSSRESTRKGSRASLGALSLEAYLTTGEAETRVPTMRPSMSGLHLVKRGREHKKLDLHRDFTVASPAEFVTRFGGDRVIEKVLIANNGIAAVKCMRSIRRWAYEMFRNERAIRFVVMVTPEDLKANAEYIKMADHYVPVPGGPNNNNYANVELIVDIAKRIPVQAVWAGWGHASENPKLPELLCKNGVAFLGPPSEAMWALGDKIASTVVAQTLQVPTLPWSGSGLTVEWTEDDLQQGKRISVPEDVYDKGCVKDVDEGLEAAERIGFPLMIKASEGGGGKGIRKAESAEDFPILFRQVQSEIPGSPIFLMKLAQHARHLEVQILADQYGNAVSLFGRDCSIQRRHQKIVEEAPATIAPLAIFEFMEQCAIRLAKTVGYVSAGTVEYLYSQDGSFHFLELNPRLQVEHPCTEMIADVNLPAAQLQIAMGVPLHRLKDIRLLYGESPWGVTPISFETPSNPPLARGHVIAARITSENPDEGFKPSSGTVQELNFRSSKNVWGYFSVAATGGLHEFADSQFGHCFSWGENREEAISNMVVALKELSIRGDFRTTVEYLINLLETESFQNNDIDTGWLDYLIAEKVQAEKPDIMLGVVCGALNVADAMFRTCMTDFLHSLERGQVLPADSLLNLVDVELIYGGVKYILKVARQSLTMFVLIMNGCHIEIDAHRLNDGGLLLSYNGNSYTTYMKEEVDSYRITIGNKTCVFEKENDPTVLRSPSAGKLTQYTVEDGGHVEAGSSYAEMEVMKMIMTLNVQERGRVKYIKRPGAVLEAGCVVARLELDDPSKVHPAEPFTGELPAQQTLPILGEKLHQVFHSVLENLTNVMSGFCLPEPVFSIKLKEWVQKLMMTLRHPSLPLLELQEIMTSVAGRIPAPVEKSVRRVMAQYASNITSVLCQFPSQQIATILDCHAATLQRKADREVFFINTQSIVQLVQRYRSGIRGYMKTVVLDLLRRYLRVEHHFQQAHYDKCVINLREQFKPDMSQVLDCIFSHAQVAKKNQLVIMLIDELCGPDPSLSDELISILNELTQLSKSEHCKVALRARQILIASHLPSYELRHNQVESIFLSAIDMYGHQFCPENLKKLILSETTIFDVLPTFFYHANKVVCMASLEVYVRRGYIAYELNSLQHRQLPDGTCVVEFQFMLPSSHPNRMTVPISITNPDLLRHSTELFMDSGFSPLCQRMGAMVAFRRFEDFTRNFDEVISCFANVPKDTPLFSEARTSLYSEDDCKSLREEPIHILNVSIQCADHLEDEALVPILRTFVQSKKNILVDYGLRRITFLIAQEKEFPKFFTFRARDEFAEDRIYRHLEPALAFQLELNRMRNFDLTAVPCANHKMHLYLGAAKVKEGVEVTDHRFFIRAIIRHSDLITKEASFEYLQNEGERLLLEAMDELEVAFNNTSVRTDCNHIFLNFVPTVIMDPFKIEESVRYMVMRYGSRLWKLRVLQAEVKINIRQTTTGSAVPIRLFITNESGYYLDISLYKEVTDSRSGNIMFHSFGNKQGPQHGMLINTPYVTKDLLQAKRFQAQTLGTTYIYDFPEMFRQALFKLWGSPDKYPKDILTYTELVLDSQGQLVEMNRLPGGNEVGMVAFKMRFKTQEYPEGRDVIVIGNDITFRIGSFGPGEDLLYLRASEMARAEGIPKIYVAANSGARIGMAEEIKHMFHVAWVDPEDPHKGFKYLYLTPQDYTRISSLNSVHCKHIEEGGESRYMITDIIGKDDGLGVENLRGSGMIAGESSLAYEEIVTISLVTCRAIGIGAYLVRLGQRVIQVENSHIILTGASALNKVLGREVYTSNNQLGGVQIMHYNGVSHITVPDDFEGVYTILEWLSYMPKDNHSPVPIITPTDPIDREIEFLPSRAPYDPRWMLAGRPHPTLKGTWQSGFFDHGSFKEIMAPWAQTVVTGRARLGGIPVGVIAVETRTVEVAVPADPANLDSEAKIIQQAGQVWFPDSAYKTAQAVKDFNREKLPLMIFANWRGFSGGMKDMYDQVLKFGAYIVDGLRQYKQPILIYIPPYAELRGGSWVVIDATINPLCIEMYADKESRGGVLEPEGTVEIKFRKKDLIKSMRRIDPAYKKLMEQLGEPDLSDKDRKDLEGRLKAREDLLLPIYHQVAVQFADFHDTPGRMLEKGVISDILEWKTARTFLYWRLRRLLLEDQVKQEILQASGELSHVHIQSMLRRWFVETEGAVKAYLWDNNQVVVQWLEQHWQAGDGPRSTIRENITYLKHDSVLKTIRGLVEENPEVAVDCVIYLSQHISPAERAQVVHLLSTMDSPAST

This assay concerns the target T1, human ACC2 (Homo sapiens, UniProt O00763).
T1 construct: made in house; host or cells: insect cells (baculoviral expression system)
Put plainly: ACC2 assay, spectrophotometric 384 well assay (NADH-linked, coupled lactate dehydrogenase/pyruvate kinase). In kind it is biochemical. The settings on record: ACC2 assay, hACC2 construct lacking 128 N-terminal amino acids, 25° C., 340 nm; read-out: IC50. A digest of the protocol: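 Human ACC2 lacking N-terminal 128 aa, baculovirus/insect-cell expressed, anion-exchange purified; 100 mM Tris pH 7.5, 10 mM citrate, 25 mM KHCO3, 1% DMSO. Started with 200 μM NADH and acetyl-CoA plus 500 μM ATP; PK/LDH-coupled A340 decrease read 15 min at 25° C. IC50 by nonlinear fit of low-control-subtracted slopes.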
For the compound `CC(=O)N[C@@H](C)c1ccc(C2CCN(c3ccnc(C(C)C)n3)CC2)cc1` [Example 4.25], the half-maximal inhibitory concentration (IC50) is 230 nM.

With `CC(=O)N[C@@H](C)c1ccc(C2CCN(c3ccc(OCC(C)C)c(F)c3)CC2)cc1` [Example 8.28], the IC50 was 150 nM.

`C[C@H](NC(=O)C1CC1)c1ccc(C2CCN(c3ncnc(N4CCCC4)c3F)CC2)cc1` [Example 11.123]: the IC50 was determined as 200 nM.

`C[C@H](NC(=O)N(C)C)c1ccc(C2CCN(c3cnc(OCC4CC4)nc3)CC2)cc1` [Example 16.6]: the IC50 came to 450 nM.

Consider `CC(=O)N[C@@H](C)c1ccc(C2CCN(c3ncc(-c4cncc(F)c4)cn3)CC2)cc1` [Example 10.69], for which the half-maximal inhibitory concentration (IC50) amounted to 270 nM.

As for `CCOc1ccc(N2CCC(c3ccc([C@H](C)NC(C)=O)cc3)CC2)cc1OC` [Example 8.18], the IC50 turned out to be 2700 nM.

`CCOc1ccc(N2CCC(c3ccc([C@H](C)NC(=O)N(C)Cc4ccn(C)n4)cc3)CC2)cc1` [Example 14.64]: the IC50 is 3800 nM.

In the case of `C[C@H](NC(=O)N(C)C)c1ccc(C2CCN(c3ncc4nc(-c5ccccc5)oc4n3)CC2)cc1` [Example 4.47], the half-maximal inhibitory concentration (IC50) is 80 nM.

On to `COc1cccc(COc2cc(N3CCC(c4ccc([C@H](C)NC(C)=O)cc4)CC3)ccn2)c1` [Example 19.8], for which the 50% inhibitory concentration (IC50) amounted to 1500 nM.

Regarding `CC(=O)N[C@@H](C)c1ccc(C2CCN(c3ncc(C(=O)N(C)CC#N)cn3)CC2)cc1` [Example 18.42], the IC50 stood at 14000 nM.

For the compound `CCOc1ccc(N2CCC(c3ccc([C@H](C)NC(=O)c4cccnc4)cc3)CC2)cc1` [Example 6.31], the concentration for half-maximal inhibition (IC50) was 2800 nM.

As for `COCCOc1ccc(N2CCC(c3ccc([C@H](C)NC(C)=O)cc3)CC2)cc1C` [Example 8.19], the IC50 was found to be 6000 nM.

For the compound `CCCOc1ccc(N2CCC(c3ccc([C@H](C)NC(C)=O)cc3)CC2)c(OC)c1` [Example 1.31], the IC50 was 180 nM.

Consider `COc1cc(OCC2CC2)ccc1N1CCC(c2ccc([C@H](C)NC(C)=O)cc2)CC1` [Example 1.36], for which the half-inhibitory concentration (IC50) was determined as 410 nM.

On to `CC(=O)N[C@@H](C)c1ccc(C2CCN(c3cccc(OCC4CCOCC4)c3)CC2)cc1` [Example 9.13], for which the IC50 was determined as 570 nM.

As for `CC(=O)N[C@@H](C)c1ccc(C2CCN(c3cc(C(F)(F)F)ncn3)CC2)cc1` [Example 4.6], the concentration for half-maximal inhibition (IC50) turned out to be 1600 nM.

As for `C[C@H](NC(=O)C1CC1)c1ccc(C2CCN(c3ncc(-c4ccc(F)cc4)cn3)CC2)cc1` [Example 10.101], the half-maximal inhibitory concentration (IC50) was 80 nM.

In the case of `C[C@H](NC(=O)N(C)C)c1ccc(C2CCN(c3ccc(OCC4CC4(F)F)cc3)CC2)cc1` (stereo partly shown) [Example 1.140], the half-maximal inhibitory concentration (IC50) was determined as 90 nM.

For `CC(=O)N[C@@H](C)c1ccc(C2CCN(c3ccnc(OCC4CCCC4)n3)CC2)cc1` [Example 11.9], the IC50 came out at 380 nM.

Consider `CCOc1ccc(N2CCC(c3ccc([C@H](C)NC(=O)Cn4ccnc4)cc3)CC2)cc1` [Example 6.28], for which the concentration for half-maximal inhibition (IC50) is 1300 nM.

As to `CC(=O)N[C@@H](C)c1ccc(C2CCN(c3ccc(OCC/C=C/C4CC4)cc3)CC2)cc1` [Example 8.65], the IC50 came out at 220 nM.

Take `COc1ccc(N2CCC(c3ccc([C@H](C)NC(C)=O)cc3)CC2)cc1OC` [Example 1.43]: the half-maximal inhibitory concentration (IC50) was found to be 4100 nM.

As to `COc1cncc(-c2cnc(N3CCC(c4ccc([C@H](C)NC(C)=O)cc4)CC3)nc2)c1` [Example 10.68], the IC50 worked out at 320 nM.

Regarding `CC(=O)N[C@@H](C)c1ccc(C2CCN(c3ccnc(NC4CC4)n3)CC2)cc1` [Example 11.115], the IC50 amounted to 1500 nM.

`CC(=O)N[C@@H](C)c1ccc(C2CCN(c3ncc(-c4ccc(C(F)(F)F)nc4)cn3)CC2)cc1` [Example 10.85]: the IC50 was 2600 nM.

Regarding `CC(=O)N[C@@H](C)c1ccc(C2CCN(c3nc(C)c4ccccc4n3)CC2)cc1` [Example 4.23], the IC50 is 720 nM.

For the compound `COCCOc1ccc(N2CCC(c3ccc([C@H](C)NC(C)=O)cc3)CC2)cc1F` [Example 8.21], the IC50 worked out at 1500 nM.

With `CCCCOc1ccc(N2CCC(c3ccc([C@H](C)NC(C)=O)cc3)CC2)cc1Cl` [Example 8.44], the 50% inhibitory concentration (IC50) came to 290 nM.

As for `COC(=O)N[C@@H](C)c1ccc(C2CCN(c3ccc(OCC4CC4)cc3)CC2)cc1` [Example 1.22], the IC50 was 140 nM.

For the compound `CC(=O)N[C@@H](C)c1ccc(C2CCN(c3ccc4[nH]c(C)cc4c3)CC2)cc1` [Example 1.76], the IC50 came to 1900 nM.

`COC(=O)N[C@@H](C)c1ccc(C2CCN(c3ccc(OC4CCCC4)cc3)CC2)cc1` [Example 1.133]: the half-inhibitory concentration (IC50) was determined as 130 nM.

With `CC(C)Oc1cc(N2CCC(c3ccc([C@H](C)NC(=O)C4CC4)cc3)CC2)ncn1` [Example 20.1, (S)-Cyclopropanecarboxylic acid (1-{4-[1-(6-isopropoxy-pyrimidin-4-yl)-piperidin-4-yl]-phenyl}-ethyl)-amide], the IC50 was determined as 600 nM.

Turning to `CCOc1ccc(N2CCC(c3ccc([C@H](C)NC(=O)C4CC(F)C4)cc3)CC2)cc1` (stereo partly shown) [Example 6.38], the concentration for half-maximal inhibition (IC50) was found to be 90 nM.

As for `CCOc1ccc(N2CCC(c3ccc([C@H](C)NC(C)=O)cc3)CC2)c(C(N)=O)c1` [Example 37.1, (S)-2-(4-(4-(1-Acetamidoethyl)phenyl)piperidin-1-yl)-5-ethoxybenzamide], the IC50 turned out to be 23100 nM.

Take `CC(=O)N[C@@H](C)c1ccc(C2CCN(c3cnc(OCC4CC4)nc3)CC2)cc1` [Example 16.5]: the IC50 amounted to 2500 nM.

With `CC(=O)N[C@@H](C)c1ccc(C2CCN(c3ncc(C4=CCCCC4)cn3)CC2)cc1` [Example 10.71], the half-inhibitory concentration (IC50) was found to be 150 nM.

Take `COCCOc1ccc(N2CCC(c3ccc([C@H](C)NC(C)=O)cc3)CC2)cc1` [Example 9.24]: the IC50 was 470 nM.

Consider `CC(=O)N[C@@H](C)c1ccc(C2CCN(c3cc(N4CCC5(CC5)C4)ncn3)CC2)cc1` [Example 11.92], for which the half-inhibitory concentration (IC50) is 320 nM.

In the case of `CC(=O)N[C@@H](C)c1ccc(C2CCN(c3ccc(OCC(C)C)c(Cl)c3)CC2)cc1` [Example 8.30], the concentration for half-maximal inhibition (IC50) stood at 160 nM.

As to `C[C@H](NC(=O)C1CC1)c1ccc(C2CCN(c3nc(N4CCCC4)ncc3F)CC2)cc1` [Example 11.121], the concentration for half-maximal inhibition (IC50) stood at 470 nM.

`CCCOc1ccc(N2CCC(c3ccc([C@H](C)NC(=O)C4CC4)cc3)CC2)c(F)c1` [Example 1.83]: the 50% inhibitory concentration (IC50) was 100 nM.

For `CC(=O)N[C@@H](C)c1ccc(C2CCN(c3cccc(OC(C)C)c3)CC2)cc1` [Example 8.7], the IC50 worked out at 160 nM.

Turning to `CCCC(C)Oc1ccc(N2CCC(c3ccc([C@H](C)NC(C)=O)cc3)CC2)cc1OC` (stereo partly shown) [Example 8.59], the IC50 was determined as 840 nM.

Regarding `CC(=O)N[C@@H](C)c1ccc(C2CCN(c3ncc(C(=O)NCC4CCNCC4)cn3)CC2)cc1` [Example 18.60], the IC50 was found to be 15500 nM.

On to `CC(=O)N[C@@H](C)c1ccc(C2CCN(c3ccc(OCC4CCOCC4)cc3)CC2)cc1` [Example 9.30], for which the IC50 was 2300 nM.

For `CC(=O)N[C@@H](C)c1ccc(C2CCN(c3ncc(C(=O)NCCC4CCCN4C)cn3)CC2)cc1` (stereo partly shown) [Example 18.56], the IC50 came out at 14900 nM.

On to `CC(=O)N[C@@H](C)c1ccc(C2CCN(c3ncc4nc(-c5ccccc5)oc4n3)CC2)cc1` [Example 4.28], for which the IC50 came out at 60 nM.

On to `CC(=O)N[C@@H](C)c1ccc(C2CCN(c3ccnc(N4Cc5ccccc5C4)n3)CC2)cc1` [Example 11.88], for which the concentration for half-maximal inhibition (IC50) turned out to be 1600 nM.

With `CC(=O)N[C@@H](C)c1ccc(C2CCN(c3ccc4oc(C5CC5)nc4c3)CC2)cc1` [Example 15.14], the half-inhibitory concentration (IC50) came to 880 nM.
